Values quoted from earlier work, collected in US9034628B2, “Induction of gene expression using a high concentration sugar mixture” (Danisco US Inc., priority 2002, dated 2015).

Tested on: main cellulase genes in Trichoderma, cbh1, cbh2, egl1, and egl2

Question: For OC[C@H]1O[C@@H](O[C@H]2C(O)O[C@H](CO)[C@@H](O)[C@@H]2O)[C@H](O)[C@@H](O)[C@@H]1O (some centres unmarked) [sophorose], which “Expression of the cellulase genes” value (carbon source available for growth) is on record?
Answer: induced several thousand fold

Question: What about the “expression level of the major cellobiohydrolase 1 (cbh1)” value (media containing inducing carbon source compared with glucose containing media (Ilmen et al. 1997)) of the same compound?
Answer: up-regulated several thousand fold
